Converted amounts (≈) assume the structure as drawn.
Tests used:
[1] = species: Homo sapiens; assay: In vitro inhibitory activity against LTB4 synthesis in A-23187 stimulated human whole blood (HB1).; assay type: functional
[2] = species: Rattus norvegicus; assay: compound was tested for oral activity in the rat using zymosan-inflamed air pouch exudate at 3 hrs post dose(RAP).; assay type: functional
[3] = Solubility was evaluated; assay type: physicochemical
[4] = pKa value was evaluated; assay type: physicochemical

Row | SMILES | IC50 [1] [nM] | solubility [3] [µM] | pKa [4] | ED50 [2] [mg/kg]
1 | COC(=O)C(C)(C)CO/N=C(\C)c1ccc(Sc2cc(F)cc(C3(OC)CCOCC3)c2)cc1 | 420 |  |  | 
2 | COC1(c2cc(F)cc(Sc3ccc(/C(C)=N/OC(C)=O)cc3)c2)CCOCC1 | 50 |  |  | 
3 | COC1(c2cc(F)cc(Sc3ccc4c(c3)OCC/C4=N\OCC#N)c2)CCOCC1 | 40 |  |  | 
4 | COC1(c2csc(Sc3ccc4c(c3)CC/C4=N\OCC#N)c2)CCOCC1 | 40 |  |  | 
5 | COC1(c2cc(F)cc(OCc3ccc4c(ccc(=O)n4C)c3)c2)CCOCC1 [ZD-2138] | 25 |  |  | 
6 | C/C(=N\OC(=O)N(C)C)c1ccc(Sc2cc(F)cc(C3CCOCC3)c2)cc1 | 2610 |  |  | 
7 | COC1(c2csc(Sc3ccc4c(c3)CC/C4=N\O)c2)CCOCC1 | 130 |  |  | 
8 | CO[C@]1(c2cc(F)cc(S(=O)(=O)c3ccc(/C(C)=N/O)cc3)c2)CCO[C@@H](C)C1 | 20 | 4.6 (≈ 1.94 µg/mL) |  | 0.1
9 | COC1(c2csc(Sc3ccc4c(c3)OCC/C4=N\OCC#N)c2)CCOCC1 | 60 |  |  | 0.15
10 | CO[C@]1(c2cc(F)cc(Sc3ccc(/C(C)=N/OCC#N)cc3)c2)CCO[C@@H](C)C1 | 40 |  |  | 0.15
11 | CCOC(=O)CO/N=C(\C)c1ccc(Sc2cc(F)cc(C3(OC)CCOCC3)c2)cc1 | 610 |  |  | 
12 | COC1(c2csc(Sc3ccc4c(c3)OCC/C4=N\O)c2)CCOCC1 | 40 |  |  | 
13 | COC1(c2cc(F)cc(Sc3ccc(/C(C)=N/OCC(=O)O)cc3)c2)CCOCC1 | 740 |  |  | 
14 | CO[C@]1(c2cc(F)cc(S(=O)(=O)c3ccc(/C(C)=N/OCC#N)cc3)c2)CCO[C@@H](C)C1 | 60 |  |  | 0.1
15 | COC1(c2cc(F)cc(Sc3ccc4c(c3)CC/C4=N\OCC#N)c2)CCOCC1 | 30 |  |  | 
16 | COC1(c2cc(F)cc(Sc3ccc(/C(C)=N/OCCSc4nnc(C)s4)cc3)c2)CCOCC1 | 230 |  |  | 
17 | CCOC(=O)/C(=N\O)c1ccc(Sc2cc(F)cc(C3(OC)CCOCC3)c2)cc1 | 170 |  | 9.3 | 
18 | COC1(c2cc(F)cc(Sc3ccccc3/C(C)=N/O)c2)CCOCC1 | > 10000 |  |  | 
19 | CO/N=C(\C)c1ccc(Sc2cc(F)cc(C3(OC)CCOCC3)c2)cc1 | 110 |  |  | 
20 | COC1(c2cc(F)cc(Sc3ccc4c(c3)CC/C4=N\O)c2)CCOCC1 | 290 |  |  | 
21 | COC1(c2cc(F)cc(Sc3ccc(/C(C#N)=N/O)cc3)c2)CCOCC1 | 250 |  | 6.2 | 
22 | CO[C@]1(c2cnc(Sc3ccc(/C(C)=N/OCC#N)cc3)s2)CCO[C@@H](C)C1 | 40 |  |  | 0.3

Further lines, with some results ahead:

Row | IC50 [1] [nM] | solubility [3] [µM] | pKa [4] | SMILES | ED50 [2] [mg/kg]
23 | 40 |  |  | CO[C@]1(c2cnc(Sc3ccc(/C(C)=N/O)cc3)s2)CCO[C@@H](C)C1 | 0.3
24 | 40 | 0.6 (≈ 0.234 µg/mL) |  | CO[C@]1(c2cc(F)cc(Sc3ccc(/C(C)=N/O)cc3)c2)CCO[C@@H](C)C1 | 0.05
25 | 320 | 31 (≈ 12.7 µg/mL) |  | CO[C@]1(c2cnc(S(=O)(=O)c3ccc(/C(C)=N/O)cc3)s2)CCO[C@@H](C)C1 | 1
26 | 40 |  |  | COC1(c2cc(F)cc(Sc3ccc(/C(C)=N/OCCF)cc3)c2)CCOCC1 | 
27 | 920 |  |  | COC1(c2cc(F)cc(Sc3ccc(/C(C)=N/OC(C)C)cc3)c2)CCOCC1 | 
28 | 20 |  |  | COC1(c2cc(F)cc(Sc3ccc(/C(C)=N/OCC#N)cc3)c2)CCOCC1 | 
29 | 850 |  | 8.4 | COC1(c2cc(F)cc(Sc3ccc(/C(=N/O)C(C)=O)cc3)c2)CCOCC1 | 
30 | 40 |  |  | COC1(c2cc(F)cc(Sc3ccc(/C(C)=N/OC(=O)C(C)(C)C)cc3)c2)CCOCC1 | 
31 | 190 |  |  | COC1(c2cc(F)cc(Sc3ccc(/C(=N/O)SC)cc3)c2)CCOCC1 | 
32 | 140 |  |  | CO/N=C(\C)c1ccc(Sc2cc(F)cc([C@@]3(OC)CCO[C@@H](C)C3)c2)cc1 | 0.15
33 | 140 | 1 (≈ 0.45 µg/mL) |  | CO[C@]1(c2cnc(S(=O)(=O)c3ccc(/C(C)=N/OCC#N)cc3)s2)CCO[C@@H](C)C1 | 0.5
34 | 280 |  | 7.68 | COC1(c2cc(F)cc(Sc3ccc(/C(=N/O)C(F)(F)F)cc3)c2)CCOCC1 | 
35 | 50 |  |  | COC1(c2cc(F)cc(Sc3ccc4c(c3)OCC/C4=N\O)c2)CCOCC1 | 
36 | 150 |  |  | CCOC(=O)c1csc(CO/N=C(\C)c2ccc(Sc3cc(F)cc(C4(OC)CCOCC4)c3)cc2)n1 | 

Reference: ChEMBL document CHEMBL1129182, “Oximes: A new class of methoxytetrahydropyranyl inhibitors of leukotriene biosynthesis with high in vitro and in vivo potency” (Bioorg Med Chem Lett, 1996)
